In test [1] the test system is PDH-E1alpha (pSer300) in HEK293T cells. Description: Cellular immunofluorescence assay (Anti-PDH-E1alpha (pSer300)) in HEK293T cells. Format: cell-based. Conditions: Homo sapiens, HEK-293T, 5 hours incubation, read-out: IC50 (cell data). Here is the method: Cellular Assay for Determination of Compound Activities
Compound activities were determined in a cellular immunofluorescence assay.
Human HEK293T cells were seeded into black 384-well plates with clear bottom and grown overnight.
Next day, test compounds were added to the wells and the plates incubated for 5 hours. Following this, cells were fixed with formaldehyde, permeabilised and blocked. The primary antibody, Anti-PDH-E1alpha (pSer300), AP1064 (Merck Millipore) was added and incubated overnight in the plate wells. Next, cells were washed and the secondary antibody, Alexa Fluor 488, goat anti-rabbit ab (A-11008, Invitrogen) was added together with Hoechst 33258 (H3569, Invitrogen) and incubated for 1 hour in the plate wells. Finally, cells were washed and the plates were measured on the laser scanning cytometer acumen hci (TTpLabtech).
The raw data were normalized against a pharmacological inhibitor control and dose response curves were generated by plotting the percent effect values using the software package Genedata screener (Genedata).

In another test the target is PDHK2 (Homo sapiens (Human), UniProt Q15119). Briefly: Biochemical activity testing of PDHK2: PDC inactivation assay. Conditions: human rec PDHK2, 5 μM ATP, read-out: IC50 PDHK2 (enzyme assay). The source says: Biochemical Activity Testing of PDHK2: PDC Inactivation Assay
The biochemical activity assay for PDHK2 is based on the inactivation of PDC through phosphorylation by PDHK2. The assay is run in two steps: the enzymatic PDHK2 reaction in which isolated PDC is phosphorylated by PDHK2 with ATP as co-substrate and the PDC activity assay in which pyruvate and NAD are converted to acetyl-CoA and NADH. The PDC activity correlates to the increase in NADH and thereby is detectable directly via the increasing fluorescence signal (Exc 340 nm, Em 450 nm). Inhibition of PDHK2 results in a lower phosphorylation status and thereby a less decrease in activity of PDC and a stronger increase in NADH fluorescence signal.
The PDC inactivation assay is performed in Greiner 384-well microtiter plates and is used for high throughput screen. 4 μl of PDHK2 (human, rec, Carna Bioscience, 10 ng/μl-137 nM final concentration) and PDC (isolated from porcine heart, Sigma-Aldrich, 20 mU/ml final concentration) are incubated in the absence or presence of the test compound (10 dilution concentrations) for 30 min at room temperature in kinase buffer (15 mM potassium phosphate buffer, pH 7.0, 60 mM KCl, 1.5 mM DTT, 2.5 mM MgCl2, 0.0125% (w/v) BSA, 0.125% Pluronic F-68). The kinase reaction is started by the addition of 4 μl ATP substrate solution (fc 5 μM in kinase buffer). After 30 min incubation at 37° C. 40 μl of PDC reaction solution (100 mM Tris/HCl, pH 7.8, 0.5 mM EDTA, 1 mM MgCl2, 50 mM NaF, 0.25 mM Coenzyme A, 5 mM pyruvate, 1 mM NAD, 5 mM DTT, 1 mM thiamine pyrophosphate) is added. The first fluorescence measurement is performed on a Perkin Elmer Envision (Exc 340 nm, Em 450 nm). The reaction is incubated for 45 min at room temperature. Afterwards a second fluorescence measurement is performed and the PDC activity is calculated by the difference between both measurements. As full value for the PDHK2 assay the inhibitor-free PDHK2 reaction is used. The pharmacological zero value used is DCA (Sigma-Aldrich) in a final concentration of 3 mM. The inhibitory values (IC50) were determined using either the program Symyx Assay Explorer® or Condosseo® from GeneData.

Another test addresses human PDHK2 (12-407) (Homo sapiens (Human), UniProt Q15119). Briefly: Isothermal titration calorimetry (ITC). Conditions: 30° C., pH 7.5; read-out: Binding (ITC) KD. The method, then:
Isothermal Titration Calorimetry
ITC measurements were performed with a VP-ITC micro calorimeter (Microcal, LLC/GE Healthcare Bio-Sciences AB, Uppsala, Sweden). In general titrations were performed by titrating the protein (50 μM) to the test compound (5 μM) in 12 μl injections. All binding experiments were carried out at 30° C. In general the test compounds were diluted form DMSO stock solutions into the measurement buffer with a maximum final concentration of 1% DMSO. The measurement buffer was 20 mM HEPES, 135 mM KCl, 1 mM TCEP, 2 mM MgCl2, 15 mM NaH2PO4, pH 7.5. The human PDHK2 (12-407) was produced in E. coli as his-tagged protein and purified by affinity chromatography. The tag was removed by side specific proteolysis. Before titration the protein buffer was changed to the measurement buffer containing the same DMSO concentration as the test compound dilution. ITC data analysis was performed using Origin 7 calorimetry software from the same supplier. For most measurements a binding model of one binding site was assumed. According to the applied mathematical model it is possible to calculate the binding constant (KA), the observed binding enthalpy (ΔH^obs) as well as the stoichiometry (N) of the formed complex. Preceding analysis the raw data was corrected for the heats of dilution by extrapolating from the saturation value from the end of titration. In order to allow for direct comparison between the respective experimental series and protein preparations the protein concentration was corrected by referencing titrations to a well behaved standard inhibitor. The apparent stoichiometry values defined the fraction of binding competent protein and compensated for relative errors in protein concentration measurements. This corrected protein concentration was used to set up ITC experiment series with test compounds. Any deviations from ideal 1:1 stoichiometry observed here were attributed to errors in compound concentration. This nominal compound concentration was corrected as well to achieve 1:1 stoichiometry in the fit.
In general terms: Isothermal titration calorimetry measures the heat released or taken up as one component is titrated into another.

pIC50, pKd: −log10 of the molar value.

This is an account of results in patent publication US10428024B2, “Piperidinyl derivatives” (MERCK PATENT GMBH, priority 2016, dated 2019).

For `Cc1ccc(N(C)C(=O)C2CCN(C(=O)[C@@](C)(O)C(F)(F)F)CC2)cc1` [Compound A1, 1-((R)-3,3,3-Trifluoro-2-hydroxy-2-methyl-propionyl)-piperidine-4-carboxylic Acid Methyl-p-Tolyl-Amide], the results for the pIC50 (in test [1]; on PDHK2) were 5.28 and 5.96, respectively. The pKd – broadly, the Kd on a negative log10 scale, so that one unit is a factor of ten – at human PDHK2 (12-407) was 6.89.
On the same counts, the results for `Cc1ccc(N(C)C(=O)C2CCN(C(=O)[C@@](C)(O)C(F)(F)F)CC2)c(F)c1` [Compound A2, 1-((R)-3,3,3-Trifluoro-2-hydroxy-2-methyl-propionyl)-piperidine-4-carboxylic acid (2-fluoro-4-methyl-phenyl)-methyl-amide] are 5.59, 6.70 and 7.05.
For the molecule `CN(C(=O)C1CCN(C(=O)[C@@](C)(O)C(F)(F)F)CC1)c1ccc(C(F)(F)F)cc1Cl` [Compound A3, 1-((R)-3,3,3-Trifluoro-2-hydroxy-2-methyl-propionyl)-piperidine-4-carboxylic acid (2-chloro-4-trifluoromethyl-phenyl)-methyl-amide], the figures for the pIC50 (in test [1]; on PDHK2) were 5.68 and 6.39, respectively. Moreover, the pKd on human PDHK2 (12-407) was 7.42.
With `CN(C(=O)C1CCN(C(=O)[C@@](C)(O)C(F)(F)F)CC1)c1ccc(C#N)cc1` [Compound A4, 1-((R)-3,3,3-Trifluoro-2-hydroxy-2-methyl-propionyl)-piperidine-4-carboxylic acid (4-cyano-phenyl)-methyl-amide], on PDHK2, the pIC50 (in general, the negative decadic logarithm of the IC50, by convention in mol/L) is 5.82. Besides, the negative logarithm of the Kd (pKd) on human PDHK2 (12-407) is 6.68.
With `CN(C(=O)C1CCN(C(=O)[C@@](C)(O)C(F)(F)F)CC1)c1ccc(Cl)cc1` [Compound A5, 1-((R)-3,3,3-Trifluoro-2-hydroxy-2-methyl-propionyl)-piperidine-4-carboxylic acid (4-chloro-phenyl)-methyl-amide], the pIC50 in test [1] is 5.55; at PDHK2 it was 6.23. The pKd on human PDHK2 (12-407) was 6.72.
In the case of `Cc1ccc(N(C)C(=O)C2CCN(C(=O)[C@@](C)(O)C(F)(F)F)CC2C)cc1` (stereo partly drawn) [Compound A6, N,3-Dimethyl-N-(4-methylphenyl)-1-[(2R)-3,3,3-trifluoro-2-hydroxy-2-methylpropanoyl]piperidine-4-carboxamide], the pIC50 is 6.70 in test [1] and 6.62 at PDHK2.
Take `Cc1ccc(N(C)C(=O)[C@H]2CCN(C(=O)[C@@](C)(O)C(F)(F)F)C[C@H]2C)cc1` [Compound A7, (3S,4S)—N,3-Dimethyl-N-(4-methylphenyl)-1-[(2R)-3,3,3-trifluoro-2-hydroxy-2-methylpropanoyl]piperidine-4-carboxamide]: the figures for the pIC50 (in test [1]; on PDHK2) were 7.72 and 6.80, respectively. Moreover, the pKd on human PDHK2 (12-407) is 7.51.
Take `CC1CN(C(=O)[C@@](C)(O)C(F)(F)F)CCC1C(=O)N(C)c1ccc(Cl)cc1` (stereo partly drawn) [Compound A9, N-(4-chlorophenyl)-N,3-dimethyl-1-[(2R)-3,3,3-trifluoro-2-hydroxy-2-methylpropanoyl]piperidine-4-carboxamide]: the pIC50 in test [1] was 6.64; at PDHK2 it was 6.57. Also, the pKd at human PDHK2 (12-407) is 7.00.
For `C[C@@H]1CN(C(=O)[C@@](C)(O)C(F)(F)F)CC[C@@H]1C(=O)N(C)c1ccc(Cl)cc1` [Compound A10, (3S,4S)—N-(4-chlorophenyl)-N,3-dimethyl-1-[(2R)-3,3,3-trifluoro-2-hydroxy-2-methylpropanoyl]piperidine-4-carboxamide], the pIC50 in test [1] is 6.77; at PDHK2, 6.96. Moreover, the negative logarithm of the Kd (pKd) at human PDHK2 (12-407) was 7.59.
On to `Cc1ccc(N(C)C(=O)C2CCN(C(=O)[C@@](C)(O)C(F)(F)F)CC2C)c(F)c1` (stereo partly drawn) [Compound A12, N-(2-fluoro-4-methylphenyl)-N,3-dimethyl-1-[(2R)-3,3,3-trifluoro-2-hydroxy-2-methylpropanoyl]piperidine-4-carboxamide], for which the pIC50 was 6.72 in test [1] and 6.70 on PDHK2.
As for `Cc1ccc(N(C)C(=O)[C@H]2CCN(C(=O)[C@@](C)(O)C(F)(F)F)C[C@H]2C)c(F)c1` [Compound A13, (3S,4S)—N-(2-fluoro-4-methylphenyl)-N,3-dimethyl-1-[(2R)-3,3,3-trifluoro-2-hydroxy-2-methylpropanoyl]piperidine-4-carboxamide], the pIC50 is 7.15 in test [1] and 6.92 at PDHK2. Moreover, the pKd on human PDHK2 (12-407) was 7.85.
On to `Cc1ccc(N(C)C(=O)[C@@H]2CCN(C(=O)[C@@](C)(O)C(F)(F)F)C[C@@H]2C)c(F)c1` [Compound A14, (3R,4R)—N-(2-fluoro-4-methylphenyl)-N,3-dimethyl-1-[(2R)-3,3,3-trifluoro-2-hydroxy-2-methylpropanoyl]piperidine-4-carboxamide], for which, at PDHK2, the pIC50 was 6.11. Moreover, at human PDHK2 (12-407), the pKd is 5.30.
Consider `C[C@H]1CN(C(=O)[C@@](C)(O)C(F)(F)F)CC[C@H]1N(C)C(=O)c1ccc(F)cc1Cl` [Compound A51, 2-Chloro-4-fluoro-N-methyl-N-[(3S,4R)-3-methyl-1-[(2R)-3,3,3-trifluoro-2-hydroxy-2-methylpropanoyl]piperidin-4-yl]benzamide], for which the pIC50 on PDHK2 was 5.44.
`C[C@H]1CN(C(=O)[C@@](C)(O)C(F)(F)F)CC[C@H]1N(C)C(=O)c1ccc(F)cn1` [Compound A54, 5-Fluoro-N-methyl-N-[(3S,4R)-3-methyl-1-[(2R)-3,3,3-trifluoro-2-hydroxy-2-methylpropanoyl]piperidin-4-yl]pyridine-2-carboxamide]: the pIC50 on PDHK2 was 4.89.
The same measure, in the same setting: next, `C[C@H]1CN(C(=O)[C@@](C)(O)C(F)(F)F)CC[C@H]1N(C)C(=O)c1cnn(C)c1` [Compound A57, N,1-Dimethyl-N-[(3S,4R)-3-methyl-1-[(2R)-3,3,3-trifluoro-2-hydroxy-2-methylpropanoyl]piperidin-4-yl]-1H-pyrazole-4-carboxamide]: 4.72; `C[C@H]1CN(C(=O)[C@@](C)(O)C(F)(F)F)CC[C@H]1N(C)C(=O)c1ccc(Cl)cc1F` [Compound A60, 4-Chloro-2-fluoro-N-methyl-N-[(3S,4R)-3-methyl-1-[(2R)-3,3,3-trifluoro-2-hydroxy-2-methylpropanoyl]piperidin-4-yl]benzamide]: 5.41.
Still for that read-out and setting: next, `C[C@H]1CN(C(=O)[C@@](C)(O)C(F)(F)F)CC[C@H]1N(C)C(=O)c1ccc(C(F)(F)F)cc1` [Compound A63, N-Methyl-N-[(3S,4R)-3-methyl-1-[(2R)-3,3,3-trifluoro-2-hydroxy-2-methylpropanoyl]piperidin-4-yl]-4-(trifluoromethyl)benzamide]: 5.54.
